Source: US9926332B2, “Dihydro-oxazinobenzodiazepine compounds, a process for their preparation and pharmaceutical compositions containing them” (priority 2014, dated 2018)
Where two headings read alike, the source gives them in different places.

Columns and labels:
[1] = molecular target: T1, α1 subunit of the human GABAA receptor in association with the beta2 (short) and gamma2 (long) subunits (Homo sapiens, UniProt P14867+P18507+P47870); experiment: GABA-induced membrane potential response (FMP dye, FlexStation3) in HEK-293 cells expressing GABAA α1; format: cell-based
T1 construct: expressed in transfected cells; host or cells: HEK-293
T1 sequence (P14867 28-456): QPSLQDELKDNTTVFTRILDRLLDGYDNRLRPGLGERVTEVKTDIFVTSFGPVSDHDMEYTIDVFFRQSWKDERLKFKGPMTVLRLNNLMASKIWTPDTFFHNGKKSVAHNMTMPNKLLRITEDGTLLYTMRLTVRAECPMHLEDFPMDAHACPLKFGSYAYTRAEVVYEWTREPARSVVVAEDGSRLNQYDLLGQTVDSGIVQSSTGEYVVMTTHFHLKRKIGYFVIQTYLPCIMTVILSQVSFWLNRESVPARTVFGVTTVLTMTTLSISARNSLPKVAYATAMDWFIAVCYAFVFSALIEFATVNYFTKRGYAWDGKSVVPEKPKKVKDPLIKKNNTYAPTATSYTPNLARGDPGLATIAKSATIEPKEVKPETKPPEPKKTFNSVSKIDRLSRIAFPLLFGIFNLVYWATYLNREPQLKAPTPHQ
T1 sequence (P47870 26-474 isoform P47870-1 partner limits assumed): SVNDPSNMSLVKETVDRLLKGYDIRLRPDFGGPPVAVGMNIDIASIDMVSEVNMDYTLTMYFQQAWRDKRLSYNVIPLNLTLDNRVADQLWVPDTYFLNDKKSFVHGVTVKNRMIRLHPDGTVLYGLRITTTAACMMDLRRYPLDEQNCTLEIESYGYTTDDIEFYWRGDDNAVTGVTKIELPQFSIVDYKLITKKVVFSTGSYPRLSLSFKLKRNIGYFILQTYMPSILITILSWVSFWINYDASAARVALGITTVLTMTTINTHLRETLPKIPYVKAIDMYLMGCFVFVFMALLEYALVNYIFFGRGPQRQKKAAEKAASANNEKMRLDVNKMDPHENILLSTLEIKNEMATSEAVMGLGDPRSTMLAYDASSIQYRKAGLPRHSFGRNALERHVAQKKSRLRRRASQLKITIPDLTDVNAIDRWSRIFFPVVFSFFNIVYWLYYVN
T1 sequence (P18507 40-475 partner): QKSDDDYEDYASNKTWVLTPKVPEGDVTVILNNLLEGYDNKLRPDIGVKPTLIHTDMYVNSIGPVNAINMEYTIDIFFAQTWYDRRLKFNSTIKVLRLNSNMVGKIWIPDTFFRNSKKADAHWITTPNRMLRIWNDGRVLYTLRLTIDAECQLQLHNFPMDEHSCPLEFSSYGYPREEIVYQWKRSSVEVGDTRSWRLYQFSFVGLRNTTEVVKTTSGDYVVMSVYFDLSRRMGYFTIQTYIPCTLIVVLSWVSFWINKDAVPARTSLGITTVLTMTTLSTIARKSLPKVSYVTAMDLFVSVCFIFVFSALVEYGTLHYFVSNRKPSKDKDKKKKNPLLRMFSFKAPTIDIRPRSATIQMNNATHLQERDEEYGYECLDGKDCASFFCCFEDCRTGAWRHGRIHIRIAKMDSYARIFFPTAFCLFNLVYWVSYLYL

[2] = molecular target: T2, α2 subunit of the human GABAA receptor in association with the beta2 (short) and gamma2 (long) subunits (Homo sapiens, UniProt P18507+P47869+P47870); experiment: GABA-induced membrane potential response (FMP dye, FlexStation3) in HEK-293 cells expressing GABAA α2; format: cell-based
T2 construct: expressed in transfected cells; host or cells: HEK-293
T2 sequence (P47869 29-451): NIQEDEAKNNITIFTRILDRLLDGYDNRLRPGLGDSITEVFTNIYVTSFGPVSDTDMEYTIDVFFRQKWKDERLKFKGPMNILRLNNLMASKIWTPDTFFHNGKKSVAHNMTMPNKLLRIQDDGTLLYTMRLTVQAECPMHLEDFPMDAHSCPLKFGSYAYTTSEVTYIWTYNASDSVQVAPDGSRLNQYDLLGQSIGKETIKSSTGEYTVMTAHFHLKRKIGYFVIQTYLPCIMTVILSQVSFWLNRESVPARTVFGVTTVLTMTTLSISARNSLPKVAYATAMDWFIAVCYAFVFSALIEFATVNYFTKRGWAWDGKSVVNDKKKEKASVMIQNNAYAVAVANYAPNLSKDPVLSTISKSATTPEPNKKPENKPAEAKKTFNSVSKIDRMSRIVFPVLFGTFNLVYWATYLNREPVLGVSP
T2 sequence (P47870 26-474 isoform P47870-1 partner limits assumed): as the sequence (P47870 26-474 isoform P47870-1 partner limits assumed) above
T2 sequence (P18507 40-475 partner): as the sequence (P18507 40-475 partner) above
Protocol: (§1) The compounds are tested on HEK-293 (Human Embryonic Kidney) cells stably expressing the […] or the α5 subunit of the human GABAA receptor in association with the beta2 (short) and gamma2 (long) subunits, thus forming heteropentameric GABAA receptors. The cells are maintained in the presence of a selection of three antibiotics—neomycin, zeocin and puromycin—in a Dulbecco medium (DMEM) containing 10% (v/v) foetal bovine serum The membrane potential is monitored using the fluorescent blue FMP dye (Molecular Devices), following the instructions of the manufacturer. On the day before the experiment, the cells are transferred to 96-well plates (in a density of 50,000 cells/well). 18-24 h later the cells are washed and incubated with the compounds under test plus the FMP dye. Recording of the fluorescence signal in a FlexStation3 plate reader (Molecular Devices, USA) is started 40 min later. After 30 sec of monitoring baseline fluorescence GABA is added to evoke a fluorescent signal reporting depolarisation of the membrane potential across the plasma membrane. The GABA induced responses are recorded for 90 seconds. Data are calculated by subtracting the average baseline value and computing the area under the curve of the fluorescence signal induced by GABA. The IC50 values for α5 and the EC50 values for α2 of the tested compounds are determined from log concentration versus response curves obtained by non-linear regression using SoftMax Pro software (Molecular Devices, USA).

[3] = molecular target: T3, α5 subunit of the human GABAA receptor in association with the beta2 (short) and gamma2 (long) subunits (Homo sapiens, UniProt P18507+P31644+P47870); experiment: GABA-induced membrane potential response (FMP dye, FlexStation3) in HEK-293 cells expressing GABAA α5; format: cell-based
T3 construct: expressed in transfected cells; host or cells: HEK-293
T3 sequence (P31644 32-462): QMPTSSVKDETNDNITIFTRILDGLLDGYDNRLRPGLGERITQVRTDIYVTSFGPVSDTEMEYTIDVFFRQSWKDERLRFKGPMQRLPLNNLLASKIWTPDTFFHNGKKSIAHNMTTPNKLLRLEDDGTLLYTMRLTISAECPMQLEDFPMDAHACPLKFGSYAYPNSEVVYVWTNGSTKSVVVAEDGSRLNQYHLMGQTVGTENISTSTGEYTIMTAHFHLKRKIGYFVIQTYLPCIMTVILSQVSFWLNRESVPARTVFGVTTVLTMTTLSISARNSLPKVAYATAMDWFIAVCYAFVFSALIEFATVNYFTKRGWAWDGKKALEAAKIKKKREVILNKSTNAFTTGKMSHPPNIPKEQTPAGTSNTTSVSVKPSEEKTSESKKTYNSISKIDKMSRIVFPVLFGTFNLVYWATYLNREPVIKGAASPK
T3 sequence (P47870 26-474 isoform P47870-1 partner limits assumed): as the sequence (P47870 26-474 isoform P47870-1 partner limits assumed) above
T3 sequence (P18507 40-475 partner): as the sequence (P18507 40-475 partner) above
Protocol: as §1

mice [4] = experiment: Light-dark test in mice; format: in vivo; conditions: i.p. administration, FIG. 5
Protocol: FIG. 5. […] Mean values±S.E.M. (n=11-20/group) Student's t-test: vehicle vs. Diazepam-treated group (*p<0.05) Dunnett test following ANOVA: vehicle-treated vs. compound-treated groups (#:p<0.05).
The light-dark apparatus contains a light (brightly illuminated) and a dark compartment. A small opening connects the two parts. During the 5 minutes test mice were placed individually in the light compartment and allowed to explore the entire apparatus. The activity of animals was measured automatically by interruptions of horizontal and vertical infrared beams. An increase of time spent in the light area (increase in light horizontal time) is interpreted as an anxiolytic effect. The results are illustrated in FIG. 5.

mice [5] = experiment: Novel object recognition test in mice; format: in vivo; conditions: i.p. administration, FIG. 1 and FIG. 2
Source text: FIG. 1 and FIG. 2. […] Mean values±S.E.M. (n=8-11/group); Dunnett test following ANOVA (*:p<0.05, **:p<0.01, ***:p<0.001). Discrimination index: Duration of new object exploration (s)−Duration of familiar object exploration (s)/Duration of new object exploration (s)+Duration of familiar object exploration (s).
The novel object recognition test evaluates the ability of mice to detect novelty in an otherwise familiar environment. Subsequent a short exploratory period, mice are unable to discriminate between the familiar and the new object 24 hours later. […] Enhancement of the discrimination index is considered as a procognitive effect. The results are illustrated in FIG. 1 and FIG. 2.

rats = experiment: Social interaction test in rats; format: in vivo; conditions: i.p. administration, FIG. 6
Source text: FIG. 6. […] Mean values±S.E.M. (n=12/group) Kruskal-Wallis ANOVA followed by Mann-Whitney U test: control vs. compound-treated groups (**:p<0.05).
The social interaction test is a model used to measure anxiolytic or anxiogenic behaviour in rodents. When a pair of unfamiliar rats is placed together in the open field the animals show specific social behaviours (sniffing, following, grooming, crawling over and under other rats). Anxiolytic compounds such as benzodiazepines increase in the time spent with social interactions. In our experiment rats were submitted to the social interaction test of anxiety 30 min after drug treatment. The social interaction test consisted of 10 min of social encounters between two animals that received the same pharmacological treatment. The results are illustrated in FIG. 6.

mice [6] = experiment: Prepulse inhibition test in mice, PCP-induced PPI disruption; format: in vivo; conditions: i.p. administration, FIG. 4
Source text: FIG. 4. […] Mean values±S.E.M. (n=10-12/group) Student's t-test: vehicle vs. PCP-treated group (***p<0.001) Dunnett's test following ANOVA: PCP-treated vs. PCP+compound treated groups (#:p<0.05).
The startle reaction of a healthy rodents and humans to a strong acoustic stimulus is reduced by the prior presentation of a weak stimulus. The effect of the weak stimulus on the startle response has been termed prepulse inhibition (PPI). Reduced prepulse inhibition is a hallmark feature of attention-processing (sensorimotor gating) deficits in patients with schizophrenia and other psychotic disorders. Acute administration of phencyclidine (PCP), an antagonist of N-methyl D-aspartate (NMDA)-type glutamate receptors, disrupts PPI in rodents and this effect can be prevented by clinically effective antipsychotics. The results are illustrated in FIG. 4.

[7] = HEK 293 cells expressing GABAA α1, expressed as % of GABA EC50, read-out: α1 IC50
[8] = HEK 293 cells expressing GABAA α5, expressed as % of GABA EC50, read-out: α5 IC50

SMILES | EC50 [2] | IC50 [1] | IC50 [3] | also measured
CCc1c(C2=NN=C(C)Cc3cc4c(cc32)OC(C)C(=O)N4)sc2ccc(Cl)cc12 (racemic) [Example 9, 6-(5-Chloro-3-ethyl-1-benzothiophen-2-yl)-3,9-dimethyl-1,10-dihydro[1,4]oxazino[3,2-h][2,3]benzodiazepin-2(3H)-one] | 1000 nM | – | – | IC50 [1, 7]: > 10000 nM; IC50 [3, 8]: 700 nM
COc1ccc2oc(C3=NN=C(C)Cc4cc5c(cc43)OC(C)C(=O)N5)c(C)c2c1 (racemic) [Example 2, 6-(5-Methoxy-3-methyl-1-benzofuran-2-yl)-3,9-dimethyl-1,10-dihydro[1,4]oxazino[3,2-h][2,3]benzodiazepin-2(3H)-one] | 800 nM | > 10000 nM | 800 nM | –
CC1=NN=C(c2sc3ccc(Cl)cc3c2C)c2cc3c(cc2C1)NC(=O)C(C)O3 (single isomer, unassigned; (-)) [Example 26, (−)-6-(5-Chloro-3-methyl-1-benzothiophen-2-yl)-3,9-dimethyl-1,10-dihydro[1,4]oxazino[3,2-h][2,3]benzodiazepin-2(3H)-one] | – | – | – | Anxiolytic activity in Light-dark test (activity in the light compartment) (mice [4]): Anxiolytic activity
COc1ccc2oc(C3=NN=C(C)Cc4cc5c(cc43)OC(C)C(=O)N5)c(C)c2c1 (single isomer, unassigned; (+)) [Example 4, (+)-6-(5-Methoxy-3-methyl-1-benzofuran-2-yl)-3,9-dimethyl-1,10-dihydro[1,4]oxazino[3,2-h][2,3]benzodiazepin-2(3H)-one] | – | – | – | Procognitive effect (discrimination index) in the object recognition model (mice [5]): Procognitive effects; Anxiolytic activity in the social interaction model (rats): Anxiolytic activity
CC1=NN=C(c2sc3ccc(Cl)cc3c2C)c2cc3c(cc2C1)NC(=O)C(C)O3 (centres unmarked) [Example 24, 6-(5-Chloro-3-methyl-1-benzothiophen-2-yl)-3,9-dimethyl-1,10-dihydro[1,4]oxazino[3,2-h][2,3]benzodiazepin-2(3H)-one] | – | – | – | Procognitive effect (discrimination index) in the object recognition model (mice [5]): Procognitive effects
CC1=NN=C(c2sc3cccc(F)c3c2C)c2cc3c(cc2C1)NC(=O)C(C)O3 (centres unmarked) [Example 1, 6-(4-fluoro-3-methyl-1-benzothiophen-2-yl)-3,9-dimethyl-1,10-dihydro[1,4]oxazino[3,2-h][2,3]benzodiazepin-2(3H)-one] | 3500 nM | > 10000 nM | 700 nM | –
CCc1ccc2oc(C3=NN=C(C)Cc4cc5c(cc43)OC(C)C(=O)N5)c(CC)c2c1 (centres unmarked) [Example 13, 6-(3,5-Diethyl-1-benzofuran-2-yl)-3,9-dimethyl-1,10-dihydro[1,4]oxazino[3,2-h][2,3]benzodiazepin-2(3H)-one] | 1100 nM | > 10000 nM | 1300 nM | –
CC1=NN=C(c2sc3ccc(Cl)cc3c2C)c2cc3c(cc2C1)NC(=O)C(C)O3 (single isomer, unassigned; (+)) [Example 25, (+)-6-(5-Chloro-3-methyl-1-benzothiophen-2-yl)-3,9-dimethyl-1,10-dihydro[1,4]oxazino[3,2-h][2,3]benzodiazepin-2(3H)-one] | – | – | – | Effect in the PCP-induced PPI disruption model (mice [6]): Ameliorating effect
CC1=NN=C(c2sc3cc(Cl)ccc3c2C)c2cc3c(cc2C1)NC(=O)C(C)O3 (racemic) [Example 5, 6-(6-Chloro-3-methyl-1-benzothiophen-2-yl)-3,9-dimethyl-1,10-dihydro[1,4]oxazino[3,2-h][2,3]benzodiazepin-2(3H)-one] | 1200 nM | – | – | IC50 [1, 7]: > 10000 nM; IC50 [3, 8]: 900 nM
CC1=NN=C(c2oc3ccc(Cl)cc3c2C)c2cc3c(cc2C1)NC(=O)C(C)O3 (centres unmarked) [Example 12, 6-(5-Chloro-3-methyl-1-benzofuran-2-yl)-3,9-dimethyl-1,10-dihydro[1,4]oxazino[3,2-h][2,3]benzodiazepin-2(3H)-one] | 1000 nM | > 10000 nM | 3000 nM | –
CC1=NN=C(c2oc3ccc(O)cc3c2C)c2cc3c(cc2C1)NC(=O)C(C)O3 (centres unmarked) [Example 14, 6-(5-Hydroxy-3-methyl-1-benzofuran-2-yl)-3,9-dimethyl-1,10-dihydro[1,4]oxazino[3,2-h][2,3]benzodiazepin-2(3H)-one] | 1000 nM | 13700 nM | 430 nM | –
CC1=NN=C(c2sc3cc(Cl)c(F)cc3c2C)c2cc3c(cc2C1)NC(=O)C(C)O3 (centres unmarked) [Example 8, 6-(6-Chloro-5-fluoro-3-methyl-1-benzothiophen-2-yl)-3,9-dimethyl-1,10-dihydro[1,4]oxazino[3,2-h][2,3]benzodiazepin-2(3H)-one] | 1000 nM | > 10000 nM | 3000 nM | –
